From patent publication US20150031641A1, “METHODS AND COMPOSITIONS FOR THE DIAGNOSIS, PROGNOSIS AND TREATMENT OF ACUTE MYELOID LEUKEMIA” (MEMORIAL SLOAN-KETTERING CANCER CENTER, priority 2012, published 2015)

System: patients with AML
Test: ECOG E1900 trial: overall survival after induction with high-dose vs standard-dose daunorubicin plus cytarabine, by genotype
Assay type: in vivo, human
Details: for outcome with dose-intensified induction therapy: univariate analysis
Experimental: The present disclosure is based on mutational analysis of 18 genes in 398 patients with AML younger than 60 years of age randomized to receive induction therapy including high-dose or standard dose daunorubicin. Prognostic findings were further validated in an independent set of 104 patients.
Mutational analysis was performed on diagnostic patient samples from the ECOG E1900 trial in the test (n=398) and validation (n=104) cohorts. The test cohort comprised of all E1900 patients for whom viably frozen cells were available for DNA extraction and mutational profiling. The validation cohort comprised of a second set of patients for whom samples were banked in Trizol, which was used to extract DNA for mutational studies.
Clinical characteristics of the patients studied compared to the complete E1900 trial cohort are in Table 1. The median follow-up time of patients included for analysis was 47.4 months from induction randomization. Cytogenetic analysis, fluorescent in situ hybridization, and RT-PCR for recurrent cytogenetic lesions was performed as described initially by Slovak et al. and utilized previously with central review by the ECOG Cytogenetics Committee (see ref. 16 and 17).
Survival time was measured from date of randomization to date of death for those who died and date of last follow-up for those who were alive at the time of analysis. Survival probabilities were estimated using the Kaplan-Meier method and compared across mutant and wild-type patients using the log-rank test. Multivariate analyses were conducted using the Cox model with forward selection. Proportional hazards assumption was checked by testing for a non-zero slope in a regression of the scaled Schoenfeld residuals on functions of time (Table 3).
When necessary, such as the analyses performed in various subsets, results of the univariate analyses were used to select the variables to be included in the forward variable search. Final multivariate models informed the development of novel risk classification rules. When indicated, p-values were adjusted to control the family wise error rate (FWER) using the complete null distribution approximated by resampling obtained through PROC MULTTEST in SAS or the multtest library in R^19. These adjustements were performed to adjust for the probability of making one or more false discoveries given that multiple pairwise tests were being performed. The only exception is adjustment for tests regarding effect of mutations on response to induction dose where a step-down Holm procedure was used to correct for multiple testing. All analyses were performed using SAS 9.2 (www.sas.com) and R 2.12 (www.r-project.org).
Mutual exclusivitity of pairs of mutations were evaluated by fourfold contingency tables and Fisher's exact test. The association between mutations and cytogenetic risk classification was tested using the chi-square test. Hierarchical clustering was performed using the Lance-Williams dissimilarity formula and complete linkage. Survival time was measured from date of randomization to date of death for those who died and date of last follow-up for those who were alive at the time of analysis. Survival probabilities were estimated using the Kaplan-Meier method and compared across mutant and wildtype patients using the log-rank test. Multivariate analyses were conducted using the Cox model. Proportional hazards assumption was checked by testing for a non-zero slope in a regression of the scaled Schoenfeld residuals on functions of time. […]

## COc1cccc2c1C(=O)c1c(O)c3c(c(O)c1C2=O)C[C@@](O)(C(C)=O)C[C@@H]3O[C@H]1C[C@H](N)[C@H](O)[C@H](C)O1 [daunorubicin]
AML patients with MLL translocations
  outcome with dose-intensified induction therapy: improved outcome
AML patients with NPM1 mutations
  outcome with dose-intensified induction therapy: improved outcome
DNMT3A mutant patients
  survival with high-dose daunorubicin according to treatment arm: associated with improved survival
Patients receiving high-dose or standard-dose daunorubicin, FIG. 4B
  impact of DNMT3A mutational status on the outcome with dose-intensive chemotherapy: significant impact
Patients with DNMT3A or NPM1 mutations or MLL translocations, cytarabine plus 90 vs 45 mg/m^2 daunorubicin induction
  overall survival, high-dose relative to standard dose daunorubicin: improved survival
